Results as given in article PMC12271471, “Direct synthesis of mycophenolic acid aryl esters with antioxidant and antiproliferative properties” (Scientific Reports, 2025).

What was measured:
[1] = tested on: T-Jurkat cells; assay: VPD450 proliferation test (flow cytometry) on T-Jurkat cells; assay type: cell-based, human; details: for EC50: Homo sapiens, T-Jurkat, 48 h, mean ± SD; for SI selectivity index T-Jurkat (IC50/EC50): ratio between IC50 (XTT) and EC50 (VPD450) on T-Jurkat cell line; for IS internal selectivity (EC50 PBMCs / EC50 T-Jurkat): ratio between VPD450 EC50 values for PBMCs and T-Jurkat cell line
Procedure: These values indicate the concentration of any compound at which proliferation of PBMCs (healthy cells), and T-Jurkat cells (T-cell leukemia), is inhibited by 50% compared to the control. Cells were treated with the compounds for 72 h (PBMCs) or 48 h (T-Jurkat), followed by a […] VPD450 test. The results are presented in ESI Fig. S3 as proliferation curves concerning concentration.
ESI Figure 3. Concentration-dependent change in proliferation under the treatment of ester derivatives of MPA. (A) VPD450-labelled PBMCs were cultured in the presence of different concentrations (100; 50; 25; 10; 1; 0.1, and 0.01 μM) of MPA, MMF, and ester derivatives, and stimulated with magnetic beads coated with anti-CD3 and anti-CD28 antibodies for 72 hours. (B) VPD450-labelled T-Jurkat cells were cultured in the presence of different concentrations (100; 10; 1; 0.1 and 0.01 μM) of MPA and ester derivatives for 48 hours. The plots were separated based on the type of ester derivative (P or MP). Cell proliferation was analyzed using flow cytometry. The results are expressed […]
(1 picture or pasted object on this page, not shown here) […]
inhibited cell viability by more than 50%. Each experiment was conducted in triplicate, and the final […]
VPD450 dye-based in vitro cell proliferation test
PBMCs and T-Jurkat cells were washed twice with warm PBS (37°C), re-suspended in fresh PBS at a final concentration of 10-30∙10^6 cells/ml, and labelled with 1 µl of VPD450 (BD Biosciences) at 37°C for 15 minutes, with vortexing every 5 minutes to ensure uniform staining. Subsequently, cells were washed with PBS, then with the complete medium (X-VIVO20 for PBMCs and RPMI-1640 for T-Jurkat cells), next re-suspended in fresh complete medium and seeded into 96-well plates at a concentration of 1∙10^6 cells per well. PBMCs were additionally stimulated with magnetic beads coated with anti-CD3 and anti-CD28 antibodies (Invitrogen) at a 2:1 cell-to-bead ratio. To the experimental wells, 100 µl of the MPA derivatives were added to achieve final concentrations of 50, 25, 10, 5, 1, 0.1, and 0.01 µM. In parallel, control wells containing stained but unstimulated cells and stained, stimulated cells were prepared at the same concentration. Cell proliferation was analyzed using an LSRFortessa flow cytometer (BD Biosciences) and Kaluza C Flow Cytometry Analysis Software (Beckman Coulter). […]
Statistical analysis was conducted using GraphPad Prism 9 (GraphPad Software Inc).
Differences between MMF, MPA and its new derivatives were assessed using a two-tailed unpaired Student’s t-test, with statistical significance defined as p < 0.05. EC50 and IC50 values were determined by fitting data to a four-parameter non-linear regression model in GraphPad Prism 9. Statistical significance was evaluated using the t-test.

[2] = tested on: T-Jurkat cells; assay: XTT cytotoxicity test on T-Jurkat cell line; assay type: cell-based, human; details: for IC50: Homo sapiens, T-Jurkat, 48 h, viability, mean ± SD, read-out: Relative IC50 T-Jurkat (XTT); for IS internal selectivity (IC50 PBMCs / IC50 T-Jurkat): ratio between XTT IC50 values for PBMCs and T-Jurkat cell line
Procedure: Table 3 presents the IC50 values obtained from the XTT test on PBMCs and the T-Jurkat cell line, using MPA and MMF as standards. These values indicate the concentration of each compound required to reduce the viability of PBMCs (healthy cells) and T-Jurkat cells (T-cell leukemia) by 50% compared to the control. Cells were treated with compounds for 72 h (PBMCs) or 48 h (T-Jurkat), followed by a colorimetric XTT test. The results are illustrated in ESI Fig. S2 as a viability curve in relation to concentration.
Biological evaluation — PBMC and T-Jurkat cells
The T-Jurkat cell line (Clone E6-1, ATCC TIB-152), derived from a human acute T-cell leukemia, was obtained from the cell bank of the Department of Medical Immunology at the Medical University of Gdańsk. Before experimentation, the cells were thawed and cultured for about 7 days to reach the logarithmic phase of growth. The T-Jurkat cell line was suspended in a complete RPMI medium, which included RPMI-1640, 10% FBS, penicillin (100 U/ml), and streptomycin ([…]).
Human peripheral blood mononuclear cells (PBMCs) were isolated from buffy coats provided by anonymous, healthy volunteers with an average age of 35±4 years during routine transfusion procedure. These samples were received by the Authors from the Regional Centre for Blood Donation and Treatment in Gdańsk (Poland). […]
solely for PBMCs isolation. PBMCs were suspended in a complete X-VIVO medium, consisting of X-VIVO20, 10% heat-inactivated human AB serum, penicillin (100 U/ml), and streptomycin ([…]).
MPA derivatives preparation
To achieve the desired concentrations of the tested compounds, the substances were first dissolved in DMSO to reach a final concentration of 0.01 M. The solutions were then diluted in the appropriate additive-free medium (RPMI-1640 for T-Jurkat cells and X-VIVO20 for PBMCs) to obtain […]
Peripheral blood mononuclear cells were isolated by gradient centrifugation, as described previously. Buffy coats were diluted with phosphate-buffered saline (PBS, pH = 7.4, ThermoFisher Scientific) in a 1:1 ratio, layered at Ficoll-Paque™ PLUS (VWR International), and centrifuged at 800 × g for 20 minutes. The PBMC layer was collected and washed twice with PBS (1st wash: 600 × g for 10 minutes; 2nd wash: 600 × g for 5 minutes). Cell amount and viability were assessed using the Bio-Rad TC20™ automated cell counter combined with trypan blue staining.
XTT dye-based in vitro cytotoxicity test
The cytotoxic effects of mycophenolic acid (MPA) derivatives were assessed using an in vitro XTT-based assay (Roche). PBMCs in complete X-VIVO20 medium and T-Jurkat cells in complete RPMI-1640 medium were seeded into 96-well plates at a concentration of 5∙10^5 cells/50 µl per well. 50 µl of tested compounds were added to the experimental wells to achieve final concentrations of 50, 25, 10, 5, 1, 0.1, and 0.01 µM. The background control consisted of the medium without cells, while untreated cells served as the positive control. After incubating for 48 hours for T-Jurkat cells and 96 hours for PBMCs in a humidified atmosphere with 5% CO2 at 37°C, 50 µl of freshly prepared XTT reagent was added to all wells according to the manufacturer's instructions. The plates were then incubated for an additional 24 hours under the same conditions. The conversion of the water-soluble yellow XTT tetrazolium salt to orange formazan was quantified by measuring the optical density (OD) at 450 nm using an Agilent BioTek Epoch Microplate Spectrophotometer (Agilent Technologies), with a reference wavelength of 690 nm. The results were expressed as IC50 values for compounds that […]
inhibited cell viability by more than 50%. […]
PBMCs were suspended in a 15 mL centrifuge tube at a concentration of 10-30 × 10⁶ cells in 1 mL of PBS, then, 2 μL of 1 mM VPD 450 dye solution was added, incubated for 15 min at 37°C, washed with a 9-fold volume of warm PBS and centrifuged at 400 x g for 5 min. Then, the cells were suspended […]

EC50 [1] [nM] | IS internal selectivity (EC50 PBMCs / EC50 T-Jurkat) [1] | Structure (SMILES) | SI selectivity index T-Jurkat (IC50/EC50) [1] | IC50 [2] [nM] | IS internal selectivity (IC50 PBMCs / IC50 T-Jurkat) [2]
4458 ± 40 | 3.083 | COc1cc(C=O)cc(OC)c1OC(=O)CC/C(C)=C/Cc1c(O)c2c(c(C)c1OC)COC2=O [MP3] | 0.997 | 4443 ± 7 | 2.383
2640 ± 35 | 2.042 | COc1cccc(OC)c1OC(=O)CC/C(C)=C/Cc1c(O)c2c(c(C)c1OC)COC2=O [MP2] | 0.662 | 1748 ± 6 | 12.883
780 ± 34 | 1.418 | COc1ccccc1OC(=O)CC/C(C)=C/Cc1c(O)c2c(c(C)c1OC)COC2=O [MP1] | 1.259 | 982 ± 5 | 15.051
1840 ± 43 | 1.283 | C/C=C/c1ccc(OC(=O)CC/C(C)=C/Cc2c(O)c3c(c(C)c2OC)COC3=O)c(OC)c1 [MP9] | 1.070 | 1964 ± 2 | 10.770
7509 ± 36 | 0.386 | COc1cc(C=O)ccc1OC(=O)CC/C(C)=C/Cc1c(O)c2c(c(C)c1OC)COC2=O [MP4] | 0.710 | 5330 ± 5 | 4.406
1740 ± 23 | 0.665 | C=CCc1ccc(OC(=O)CC/C(C)=C/Cc2c(O)c3c(c(C)c2OC)COC3=O)c(OC)c1 [MP8] | 0.983 | 1705 ± 2 | 10.429
4923 ± 34 | 1.571 | COC(=O)/C=C/c1ccc(OC(=O)CC/C(C)=C/Cc2c(O)c3c(c(C)c2OC)COC3=O)c(OC)c1 [MP7] | 0.286 | 1406 ± 4 | 21.645

Further lines, the molecule ahead of its results:

Structure (SMILES) | EC50 [1] [nM] | IS internal selectivity (EC50 PBMCs / EC50 T-Jurkat) [1] | SI selectivity index T-Jurkat (IC50/EC50) [1] | IC50 [2] [nM] | IS internal selectivity (IC50 PBMCs / IC50 T-Jurkat) [2]
COC(=O)/C=C/c1ccccc1OC(=O)CC/C(C)=C/Cc1c(O)c2c(c(C)c1OC)COC2=O [P4] | 3530 ± 45 | 1.380 | 0.470 | 1658 ± 3 | 15.613
COc1c(C)c2c(c(O)c1C/C=C(\C)CCC(=O)Oc1cc(C)ccc1C(C)C)C(=O)OC2 [P2] | 4477 ± 33 | 0.317 | 0.552 | 2473 ± 4 | 6.611
COc1c(C)c2c(c(O)c1C/C=C(\C)CCC(=O)O)C(=O)OC2 [MPA, Mycophenolic acid] | 924 ± 34 | 1.249 | 0.570 | 527 ± 40 | 35.558
COc1c(C)c2c(c(O)c1C/C=C(\C)CCC(=O)OCCN1CCOCC1)C(=O)OC2 [MMF, mycophenolate mofetil, reference compound] | 609 ± 30 | 1.704 | 1.216 | 740 ± 34 | 22.456
COc1c(C)c2c(c(O)c1C/C=C(\C)CCC(=O)Oc1ccc3c(c1)OCO3)C(=O)OC2 [P1] | 2010 ± 42 | 0.573 | 0.533 | 1073 ± 2 | 116.938
COc1c(C)c2c(c(O)c1C/C=C(\C)CCC(=O)Oc1ccc(CCC(C)=O)cc1)C(=O)OC2 [P7] | 2230 ± 44 | 0.470 | 1.083 | 2410 ± 2 | 20.869
COc1c(C)c2c(c(O)c1C/C=C(\C)CCC(=O)Oc1ccc(C=O)cc1)C(=O)OC2 [P5] | 2357 ± 23 | 0.703 | 0.671 | 1582 ± 3 | 6.288
